From patent US20070099863A1, “Compounds for the treatment of demyelinating and autoimmune diseases” (priority 2003, published 2007)
Structures can show the parent of a compound that is named as a salt.

What was measured:
[1] = system: P2X receptors in oligodendrocytes; assay: Whole-cell patch-clamp recordings in cultured oligodendrocytes; type: cell-based, rat; settings: for induction of input current by agonist: agonist 100 μM; for EC50: cultured oligodendrocytes, whole-cell patch-clamp, read-out: EC50 of amplitude of currents generated by agonist
Experimental: (§1) The cell cultures were carried out from the optic nerve of the perinatal rat (P12) following established protocols, which were adapted and introduced into the laboratory according to a recent description (Matute et al, 1997, Proc. Natl. Acad. Sci. USA 94, 8830-8835).
The electrophysiological recordings were carried out in 2 to 5 day cultures, and according to the guidelines indicated in previous works (Patneau et al 1994, Neuron 12: 357-371). The cells were recorded in a chamber which allowed the composition of the extracellular medium to vary by means of a constant flow (0.5-1 mL/min). The recording electrodes were glass capillaries which contained specific solutions compatible with the cytoplasm ion concentrations. The study of the responses mediated by the purinergic receptors was carried out using the “whole-cell patch-clamp” technique, measuring the currents generated by the external application of selective agonists and antagonists of the aforementioned receptors.

oligodendrocytes = assay: Oligodendroglial death in culture; type: cell-based, rat; settings: for toxicity of purinergic agonists for oligodendrocytes: culture
Experimental: as §1, with “Death is calcium dependent, since its elimination from the culture media leads to it not being caused. […] The” for “The”

P2X3 = target: T1, P2X3 (Homo sapiens, UniProt P56373); settings: P2X3 subtype; read-out: IC50 in relation to P2X3; cited from earlier work
T1 sequence (P56373 1-397): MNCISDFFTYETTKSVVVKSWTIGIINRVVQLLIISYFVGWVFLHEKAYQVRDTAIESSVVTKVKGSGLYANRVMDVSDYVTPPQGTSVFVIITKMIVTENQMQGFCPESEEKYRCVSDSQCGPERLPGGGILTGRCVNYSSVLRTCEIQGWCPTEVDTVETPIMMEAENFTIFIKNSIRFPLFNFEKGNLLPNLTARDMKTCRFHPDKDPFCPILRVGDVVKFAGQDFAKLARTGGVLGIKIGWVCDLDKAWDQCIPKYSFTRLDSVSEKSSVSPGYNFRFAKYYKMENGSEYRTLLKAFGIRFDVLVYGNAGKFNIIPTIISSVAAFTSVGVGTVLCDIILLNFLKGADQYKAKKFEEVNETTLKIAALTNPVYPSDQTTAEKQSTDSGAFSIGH

P2X1 = target: T2, P2X1 (Homo sapiens, UniProt P51575); settings: P2X1 subtype; read-out: IC50 in relation to P2X1; cited from earlier work
T2 sequence (P51575 1-399): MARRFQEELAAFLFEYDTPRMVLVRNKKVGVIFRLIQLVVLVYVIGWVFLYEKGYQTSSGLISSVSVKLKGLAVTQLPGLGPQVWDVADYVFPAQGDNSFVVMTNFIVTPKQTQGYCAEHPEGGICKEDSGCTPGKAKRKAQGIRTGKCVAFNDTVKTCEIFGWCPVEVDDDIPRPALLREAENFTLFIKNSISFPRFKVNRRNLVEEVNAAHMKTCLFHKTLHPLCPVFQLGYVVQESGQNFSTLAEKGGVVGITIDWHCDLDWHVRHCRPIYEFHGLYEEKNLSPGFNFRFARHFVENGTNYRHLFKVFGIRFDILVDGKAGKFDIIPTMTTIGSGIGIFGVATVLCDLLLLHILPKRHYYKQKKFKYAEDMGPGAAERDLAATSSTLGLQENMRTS

P2X4 = target: T3, P2X4 (Homo sapiens, UniProt Q99571); settings: P2X4 subtype; read-out: IC50 in relation to P2X4; cited from earlier work
T3 sequence (Q99571 1-388): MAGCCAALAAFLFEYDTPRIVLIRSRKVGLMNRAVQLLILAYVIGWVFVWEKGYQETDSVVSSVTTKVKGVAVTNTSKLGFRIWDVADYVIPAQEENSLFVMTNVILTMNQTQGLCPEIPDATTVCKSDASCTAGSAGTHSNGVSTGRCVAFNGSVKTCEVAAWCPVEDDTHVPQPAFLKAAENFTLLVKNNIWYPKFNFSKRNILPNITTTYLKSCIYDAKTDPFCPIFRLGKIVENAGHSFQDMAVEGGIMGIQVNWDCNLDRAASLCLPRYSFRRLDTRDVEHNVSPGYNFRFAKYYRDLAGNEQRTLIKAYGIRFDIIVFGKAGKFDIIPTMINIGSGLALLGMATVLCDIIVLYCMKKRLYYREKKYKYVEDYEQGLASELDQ

[2] = system: P2X receptors in oligodendrocytes; assay: Cytosolic calcium levels (Fura-2) in oligodendrocyte cultures; type: cell-based, rat; settings: for promotion of the increase of [Ca2+]i generated by ATP: propofol 60 μM
Experimental: as §1
The concentration of cytosol calcium was determined by the method of Grynkiewikcz et al (1985; J. Biol. Chem. 260, 3440-3450). The oligodendrocytes were loaded with […] of Fura-2/AM, and they were then washed and studied in a Zeiss inverted microscope equipped with a monochromator, 40× immersion objective, an Orca high resolution digital camera, and AquaCosmos software (Hamamatsu Photonics). The changes in cytosol calcium levels in response to agonists and antagonists, in the presence and absence of extracellular calcium, were studied. The calibration was performed at the end of the studies by means of the successive application of ionomycin and EGTA, and the calcium concentration was estimated using the measurement of the 340/380 nm ratio.

optic nerve = assay: Infusion of agonists over the optic nerve in vivo (osmotic pumps); design: species or system rabbit; settings: infused 3 days by osmotic pumps, examined 7 days after start
Experimental: The experiments on the optic nerve were carried out in rabbits (New Zealand White) which, due to their size, enable better manipulation in experimental surgery. The procedure used was that described previously (Matute, 1998, Proc. Natl. Acad. Sci. 95, 10229-10234). The purinergic agonists were applied using osmotic micropumps which released small quantities of solute for a determined time. Later, the effect of this application on the nerve was evaluated by means of a panel of oligodendrocyte markers and their progenitors, myelin, axonal integrity, astrogliosis y microgliosis.
Next, the ATP-γ-S and BzATP agonists were infused over the optic nerve using osmotic pumps which released very small quantities of solute for 3 days. […] Also, this zone had intense gliosis, lack of myelin and axonal damage (FIG. 6).

[3] = system: oligodendrocytes of isolated optic nerve; assay: Isolated optic nerve perfusion, oligodendrocyte damage in situ; design: species or system rat
Experimental: Next, they were incubated with purinergic agonists and antagonists for different times. Later, the nerves were perfused for 1 to 24 hours with normal aCSF saturated with oxygen. After this time passed the damage was evaluated histologically as we have described in vivo (Matute, 1998, Proc. Natl. Acad. Sci. USA 95: 10229-10234), and the biochemical changes which are underlying to this damage were analysed.
To determine if ATP is toxic to the oligodendrocytes in a preparation of nerve tissue without dissociating, entire optic nerves isolated from adult rats were perfused with artificial cerebrospinal fluid with ATP (100 μM) for 3 h. […] The damaged cells are located in the longitudinal axis of the nerve and make up part of interfascicular oligodendrocyte rows.

EAE in Lewis rats = assay: Acute EAE induced with basic myelin protein; type: in vivo, rat; settings: 7 to 14 days post-injection
EAE in DA rats = assay: Chronic-recurrent-remittent EAE model; type: in vivo, rat; settings: o-ATP 2.5 mg/kg every 12 h, from maximum intensity of symptoms
Experimental: Later, the efficacy of o-ATP in improving the symptoms of EAE was evaluated in a chronic-recurrent-remittent model. For this, DA rats were immunised with syngeneic spinal cord, the appearance of severe neurological deficits being observed 7-9 days post-injection, and which reached their first peak around 11 days.

P2X7 receptors = assay: P2X7 receptor levels in lumbar-sacral spinal cord of EAE animals (Western blot); type: in vivo, rat; settings: EAE animals treated with o-ATP; untreated EAE reduced by half

With `Nc1ncnc2c1ncn2[C@@H]1O[C@H](COP(=O)(O)CP(=O)(O)OP(=O)(O)O)[C@@H](O)[C@H]1O` [α,β-Me-ATP, α,β-methylene-ATP] the “induction of input current by agonist” value [1] was “did not generate currents” and the “toxicity of purinergic agonists for oligodendrocytes” value (shortened to “toxicity of purinergic agonists”) (oligodendrocytes) was “toxic”.
For `O=C(Nc1cccc(C(=O)Nc2ccc(S(=O)(=O)O)c3cc(S(=O)(=O)O)cc(S(=O)(=O)O)c23)c1)Nc1cccc(C(=O)Nc2ccc(S(=O)(=O)O)c3cc(S(=O)(=O)O)cc(S(=O)(=O)O)c23)c1` [NF023, hexasodium salt of 8,8′-[carbonylbis[imino-3,1-phenylenecarbonylimino]bis-1,3,5-naphthalenetrisulfonic acid]], the IC50 (P2X3) is listed as 29 µM.
In the case of `O=C(Nc1ccc(C(=O)Nc2ccc(C(=O)Nc3ccc(S(=O)(=O)O)c4cc(S(=O)(=O)O)cc(S(=O)(=O)O)c34)cc2)cc1)Nc1ccc(C(=O)Nc2ccc(C(=O)Nc3ccc(S(=O)(=O)O)c4cc(S(=O)(=O)O)cc(S(=O)(=O)O)c34)cc2)cc1` [NF279], the IC50 (P2X1) is given as 0.02 µM and the IC50 (P2X4) is given as greater than 30 µM.
With 2′,3′-O-(4-benzoyl-4-benzoyl) [BzATP] the “induction of input current by agonist” value [1] was “induced similar responses”, the EC50 [1] was 520 µM and the “entrance of Ca2+ into oligodendrocytes” value ([2]; Bz-ATP 0.01-1 mM) was “activates the entrance of Ca^2+ into oligodendrocytes in a dose dependent way”. The “toxicity of purinergic agonists” value (oligodendrocytes) was “toxicity similar to ATP” and the “histological examination of optic nerve after agonist infusion” value (optic nerve) was “tissue damage”.
In the case of `Cc1nc(N=Nc2ccc(S(=O)(=O)O)cc2S(=O)(=O)O)c(COP(=O)(O)O)c(C=O)c1O` [PPADS, tetrasodium salt of pyridoxalphosphate-6-azophenyl-2′,4′-disulfonic acid], the “effect on currents induced by ATP” value ([1]; PPADS 100 μM) is reported as “completely blocked”, the “effect on Ca2+ entrance induced by Bz-ATP” value ([2]; PPADS) is reported as “blocked” and the “effect on [Ca2+]i response to ATP” value ([2]; PPADS 50 μM, ATP 10 μM) is reported as “repressed”. The “effect on ATP-induced oligodendrocyte death” value (oligodendrocytes; PPADS 50 μM) was “inhibited”, the “effect on ATP-induced oligodendrocyte death in isolated optic nerve” value ([3]; PPADS 10 μM with ATP) was “prevents the death of the oligodendrocytes” and the “effect on symptoms and course of acute EAE” value (EAE in Lewis rats; PPADS 30 mg/kg two times per day) was “did not improve the symptoms or the course of the disease”.
With `Nc1ncnc2c1ncn2[C@@H]1O[C@H](COP(=O)(O)OP(=O)(O)OP(O)(O)=S)[C@@H](O)[C@H]1O` [ATP-γ-S] the “toxicity of purinergic agonists” value (oligodendrocytes) was “toxic” and the “histological examination of optic nerve after agonist infusion” value (optic nerve) was “tissue damage”.
For `[Cu+2]` [Cu^2+], the “effect on ATP currents” value ([1]; Cu2+ 1 mM) was “reduces ATP currents”.
For `Nc1ncnc2c1ncn2[C@@H]1O[C@H](COP(=O)(O)OP(=O)(O)OP(=O)(O)O)[C@@H](O)[C@H]1O` [ATP], the “oligodendrocytes showing non-desensitising input current” value ([1]; ATP 1 mM, n=47) was 77.3%±7.9, the EC50 [1] was 8770 µM and the “cytosol [Ca2+]i after agonist” value ([2]; ATP 10 μM, basal 250±65 nM) was 1200 ± 468 nM. For the same compound, the death of oligodendrocytes (oligodendrocytes; ATP 0.01-1 mM, all concentrations tested) was 15-27% and the “increase in number of cells with nuclear condensation vs control nerves” value ([3]; ATP 100 μM for 3 h, isolated adult rat optic nerve) was greater than 3 times.
In the case of `Nc1ncnc2c1ncn2[C@@H](C=O)O[C@@H](C=O)COP(=O)(O)OP(=O)(O)OP(=O)(O)O` [o-ATP, sodium salt of Adenosine 5-triphosphate, oxidised with periodate], the “effect on ATP currents” value ([1]; o-ATP, concentration not given) is reported as “partially blocks”, the “reduction of the increase in [Ca2+]i induced by Bz-ATP” value ([2]; o-ATP 1 mM) is reported as 63±8 and the “effect on oligodendroglial death due to ATP” value (oligodendrocytes; o-ATP (FIG. 4)) is reported as “can be prevented”. For the same compound, the “effect on symptoms of acute EAE” value (EAE in Lewis rats; o-ATP 1 and 5 mg/kg every 12 h) was “reduced or prevented the appearance of symptoms”, the “effect on symptoms of chronic-recurrent-remittent EAE” value (EAE in DA rats) was “reduced the symptoms and also eliminated those common to the chronic phase” and the “levels of P2X7 receptors in lumbar-sacral spinal cord” value (P2X7 receptors) was “returned to those of the controls”.
For `O=c1[nH]cnc2c1ncn2C1OC(COP(=O)(O)OP(=O)(O)OP(=O)(O)OP(=O)(O)OP(=O)(O)OCC2OC(n3cnc4c(=O)[nH]cnc43)C(O)C2O)C(O)C1O` (centres unmarked) [Ip5I, pentapotassium salt of P^1,P^5-Diinosine-5-pentaphosphate], the IC50 (P2X1) is listed as 0.003 µM and the IC50 (P2X3) is listed as 3 µM.
With `CC(C)c1cccc(C(C)C)c1O` [propofol] the “effect on ATP currents” value ([1]; propofol 60 μM) was “does not alter these currents”, the “promotion of the increase of [Ca2+]i generated by ATP” value ([2]; 0.1 mM ATP) was 60%±22 and the “promotion of the increase of [Ca2+]i generated by ATP” value ([2]; 1 mM ATP) was 77%±34.
